{"source": "patent US11224565B2", "about": "“N-acyldipeptide derivatives and their uses” (NeoStrata Company, Inc., priority 2011, dated 2022)", "format_in_all_cases": "in vivo, human", "key": {"[1]": {"tested_on": "Aging related changes of skin, nail and hair", "assay": "Summary of test results in volunteer subjects: aging related changes", "conditions": "efficacy grade", "from_the_text": "(§1) In one embodiment, a composition for topical application to test its therapeutic effect was formulated by dissolving a bioactive dipeptide derivative of the present invention in a solution prepared from 40 parts water, 40 parts ethanol and 20 parts propylene glycol by volume (WEP442). In another embodiment, a composition was formulated by dissolving a bioactive dipeptide derivative of the present invention in a non-aqueous solution prepared from 80 parts ethanol and 20 parts propylene glycol by volume (EP82). In yet another embodiment, a composition was formulated first by dissolving a bioactive dipeptide derivative of the present invention in a solution prepared from 80 parts water and 20 parts propylene glycol by volume (WP82), and the solution thus prepared was mixed with an oil-in-water emulsion or cream. In another embodiment, the volunteer subject topically applied the test compositions containing N-acyldipeptide derivatives of the present invention on involved skin or lesions once or twice daily for several weeks or until the involved lesions completely cleared and clinically changed to normal skin. As a control study, the subject also topically applied a vehicle control composition on the involved skin or lesions twice daily for the same period. In yet another embodiment, the volunteer subject topically applied once or twice daily the test compositions containing N-acyldipeptide derivatives of the present invention on the skin site above arthritic joints or painful muscles to provide therapeutic effects for the systemic disorders via topical administration. Some test results are summarized as follows. AG: Aging related changes of skin, nail and hair"}, "forearm skin": {"tested_on": "forearm skin", "assay": "Skin thickness of forearm by micrometer calipers after topical application", "conditions": "for increase in skin thickness of treated left forearm: 2% (w/v) in WEP442 topically twice daily, vehicle forearm no change", "procedure": "In one of the studies related to skin changes associated with aging, skin thickness was measured by micrometer calipers as follows. The skin was grasped with a 2×6 cm metal hinge; the internal faces of which were coated with emery cloth to prevent slippage, and manually squeezed to threshold subject discomfort. Combined thickness of two whole-skin layers including thickness of the two hinge leaves was measured with micrometer calipers. Thickness of the two hinge leaves was subtracted to determine the actual thickness of two whole-skin layers. Triplicate measurements on treated sites were done and an average number was used for calculation of the skin thickness. In other studies, test sites of skin 17 mm in diameter were used, the circular sites were marked with permanent ink. Intervening control sites were also 17 mm in diameter. Thickness of skin of all sites was measured directly by means of an electronic digital caliper. In this instance the jaws of the caliper were opened to 17 mm, applied with pressure to the skin sites and then closed to firm tightness. Thickness of skin was then read off the screen of the calipers. Measurements of all sites were made in triplicates."}, "Disturbed keratinization": {"tested_on": "Disturbed keratinization", "assay": "Summary of test results in volunteer subjects: disturbed keratinization", "conditions": "efficacy grade", "from_the_text": "as §1, with “DK: Disturbed keratinization” for “AG: Aging related changes of skin, nail and hair”"}, "[2]": {"tested_on": "inflammation, dermatitis, or eczema lesions", "assay": "Topical application to chronic inflammation, dermatitis, eczema or allergic skin lesions, clinical evaluation", "conditions": "chronic eczema, twice daily, 0.6% (w/w) N-Ac-L-Tyr-L-Tyr-NHNH2 cream on one set of lesions, 0.7% (w/w) N-Ac-L-Tyr-L-Tyr-NHNHAc cream on another", "from_the_text": "In another embodiment, the volunteer subject topically applied the test compositions containing N-acyldipeptide derivatives of the present invention on involved skin or lesions once or twice daily for several weeks or until the involved lesions completely cleared and clinically changed to normal skin. As a control study, the subject also topically applied a vehicle control composition on the involved skin or lesions twice daily for the same period."}, "[3]": {"tested_on": "Deranged immune disorders and inflammation", "assay": "Summary of test results in volunteer subjects: deranged immune disorders and inflammation", "conditions": "efficacy grade", "from_the_text": "as §1, with “DI: Deranged immune disorders” for “AG: Aging related changes of skin, nail”, “inflammation” for “hair”"}, "Nerve disorders": {"tested_on": "Nerve disorders", "assay": "Summary of test results in volunteer subjects: nerve disorders", "conditions": "efficacy grade", "from_the_text": "as §1, with “ND: Nerve disorders” for “AG: Aging related changes of skin, nail and hair”"}}, "note": "Peptide text beside a SMILES is read from it.", "data": [{"smiles": "CC(=O)N[C@@H](Cc1ccc(O)cc1)C(=O)N[C@@H](Cc1ccc(O)cc1)C(=O)NN", "note": "[N-Ac-L-Tyr-L-Tyr-NHNH2] (HELM PEPTIDE1{[ac].Y.Y.[NN[*:1]]}$$$$V2.0)", "values": [{"measurement": "AG", "setting": "[1]", "result": "3+ (3+: 75% Efficacy)"}, {"measurement": "appearance of treated left forearm at end of treatment", "setting": "forearm skin; 1-3% (w/v) in WEP442 topically twice daily for 1-6 weeks as in the example, vehicle forearm still loose, thin and wrinkled", "result": "more firm, smooth, plump, and less wrinkled when lifted"}, {"measurement": "increase in skin thickness of treated left forearm", "setting": "forearm skin; after one week", "result": 15, "unit": "%"}, {"measurement": "increase in skin thickness of treated left forearm", "setting": "forearm skin; after three weeks", "result": 32, "unit": "%"}, {"measurement": "increase in skin thickness of treated left forearm", "setting": "forearm skin; after two weeks", "result": 14, "unit": "%"}, {"measurement": "DK", "setting": "Disturbed keratinization", "result": "3+ (3+: 75% Efficacy)"}, {"measurement": "improvement as judged by clinical evaluation", "setting": "[2]; two weeks", "result": 75, "unit": "%"}, {"measurement": "itch after topical application", "setting": "[2]", "result": "stopped a few minutes after"}, {"measurement": "DI", "setting": "[3]", "result": "2+ (2+: 50% Efficacy)"}, {"measurement": "ND", "setting": "Nerve disorders", "result": "2+ (2+: 50% Efficacy)"}]}, {"smiles": "CC[C@H](C)[C@H](NC(C)=O)C(=O)N[C@@H](C)C(=O)O", "note": "[N-Ac-L-Ile-L-Ala-OH] (Ac-Ile-Ala-OH)", "values": [{"measurement": "AG", "setting": "[1]", "result": "2+ (2+: 50% Efficacy)"}, {"measurement": "DK", "setting": "Disturbed keratinization", "result": "2+ (2+: 50% Efficacy)"}, {"measurement": "DI", "setting": "[3]", "result": "2+ (2+: 50% Efficacy)"}, {"measurement": "ND", "setting": "Nerve disorders", "result": "2+ (2+: 50% Efficacy)"}]}, {"smiles": "CC(=O)N[C@H](C(=O)N[C@@H](Cc1ccc(O)cc1)C(N)=O)C(C)C", "note": "[N-Ac-L-Val-L-Tyr-NH2] (Ac-Val-Tyr-NH2)", "values": [{"measurement": "AG", "setting": "[1]", "result": "2+ (2+: 50% Efficacy)"}, {"measurement": "DK", "setting": "Disturbed keratinization", "result": "2+ (2+: 50% Efficacy)"}, {"measurement": "DI", "setting": "[3]", "result": "2+ (2+: 50% Efficacy)"}, {"measurement": "ND", "setting": "Nerve disorders", "result": "2+ (2+: 50% Efficacy)"}]}, {"smiles": "CCC(=O)N[C@H](C(=O)N[C@@H](C)C(=O)O)C(C)C", "note": "[N-Pr-L-Val-L-Ala-OH] (HELM PEPTIDE1{[CCC(=O)[*:2]].V.A}$$$$V2.0)", "values": [{"measurement": "AG", "setting": "[1]", "result": "2+ (2+: 50% Efficacy)"}, {"measurement": "DK", "setting": "Disturbed keratinization", "result": "2+ (2+: 50% Efficacy)"}, {"measurement": "DI", "setting": "[3]", "result": "3+ (3+: 75% Efficacy)"}, {"measurement": "ND", "setting": "Nerve disorders", "result": "4+ (4+: 95-100% Efficacy)"}]}, {"smiles": "CC(=O)N[C@@H](CC(C)C)C(=O)N[C@@H](C)C(=O)O", "note": "[N-Ac-L-Leu-L-Ala-OH] (Ac-Leu-Ala-OH)", "values": [{"measurement": "AG", "setting": "[1]", "result": "2+ (2+: 50% Efficacy)"}, {"measurement": "DK", "setting": "Disturbed keratinization", "result": "2+ (2+: 50% Efficacy)"}, {"measurement": "DI", "setting": "[3]", "result": "3+ (3+: 75% Efficacy)"}, {"measurement": "ND", "setting": "Nerve disorders", "result": "3+ (3+: 75% Efficacy)"}]}, {"smiles": "CC(=O)NCCC(=O)NCC(N)=O", "note": "[N-Ac-β-Ala-Gly-NH2]", "values": [{"measurement": "AG", "setting": "[1]", "result": "2+ (2+: 50% Efficacy)"}, {"measurement": "DK", "setting": "Disturbed keratinization", "result": "2+ (2+: 50% Efficacy)"}, {"measurement": "DI", "setting": "[3]", "result": "2+ (2+: 50% Efficacy)"}, {"measurement": "ND", "setting": "Nerve disorders", "result": "2+ (2+: 50% Efficacy)"}]}, {"smiles": "CC(=O)NCC(=O)NCC(N)=O", "note": "[N-Ac-Gly-Gly-NH2]", "values": [{"measurement": "AG", "setting": "[1]", "result": "2+ (2+: 50% Efficacy)"}, {"measurement": "DK", "setting": "Disturbed keratinization", "result": "2+ (2+: 50% Efficacy)"}, {"measurement": "DI", "setting": "[3]", "result": "2+ (2+: 50% Efficacy)"}, {"measurement": "ND", "setting": "Nerve disorders", "result": "2+ (2+: 50% Efficacy)"}]}, {"smiles": "CC(=O)NCCC(=O)N[C@@H](Cc1c[nH]cn1)C(N)=O", "note": "[N-Ac-βAla-L-His-NH2]", "values": [{"measurement": "AG", "setting": "[1]", "result": "2+ (2+: 50% Efficacy)"}, {"measurement": "DK", "setting": "Disturbed keratinization", "result": "2+ (2+: 50% Efficacy)"}, {"measurement": "DI", "setting": "[3]", "result": "2+ (2+: 50% Efficacy)"}, {"measurement": "ND", "setting": "Nerve disorders", "result": "2+ (2+: 50% Efficacy)"}]}, {"smiles": "CC(=O)N[C@@H](CS)C(=O)NCC(N)=O", "note": "[N-Ac-L-Cys-Gly-NH2]", "values": [{"measurement": "AG", "setting": "[1]", "result": "2+ (2+: 50% Efficacy)"}, {"measurement": "DK", "setting": "Disturbed keratinization", "result": "2+ (2+: 50% Efficacy)"}, {"measurement": "DI", "setting": "[3]", "result": "2+ (2+: 50% Efficacy)"}, {"measurement": "ND", "setting": "Nerve disorders", "result": "2+ (2+: 50% Efficacy)"}]}, {"smiles": "CC[C@H](C)[C@H](NC(C)=O)C(=O)N[C@@H](C)C(N)=O", "note": "[N-Ac-L-Ile-L-Ala-NH2] (Ac-Ile-Ala-NH2)", "values": [{"measurement": "AG", "setting": "[1]", "result": "2+ (2+: 50% Efficacy)"}, {"measurement": "DK", "setting": "Disturbed keratinization", "result": "2+ (2+: 50% Efficacy)"}, {"measurement": "DI", "setting": "[3]", "result": "4+ (4+: 95-100% Efficacy)"}, {"measurement": "ND", "setting": "Nerve disorders", "result": "4+ (4+: 95-100% Efficacy)"}]}, {"smiles": "CC(=O)N[C@@H](Cc1ccccc1)C(=O)N[C@@H](Cc1ccccc1)C(N)=O", "note": "[N-Ac-L-Phe-L-Phe-NH2] (Ac-Phe-Phe-NH2)", "values": [{"measurement": "AG", "setting": "[1]", "result": "2+ (2+: 50% Efficacy)"}, {"measurement": "DK", "setting": "Disturbed keratinization", "result": "2+ (2+: 50% Efficacy)"}, {"measurement": "DI", "setting": "[3]", "result": "2+ (2+: 50% Efficacy)"}, {"measurement": "ND", "setting": "Nerve disorders", "result": "2+ (2+: 50% Efficacy)"}]}, {"smiles": "CCOC(=O)[C@H](Cc1ccc(O)cc1)NC(=O)[C@H](Cc1ccc(O)cc1)NC(C)=O", "note": "[N-Ac-L-Tyr-L-Tyr-OEt] (HELM PEPTIDE1{[ac].Y.Y.[CCO[*:1]]}$$$$V2.0)", "values": [{"measurement": "AG", "setting": "[1]", "result": "2+ (2+: 50% Efficacy)"}, {"measurement": "DK", "setting": "Disturbed keratinization", "result": "2+ (2+: 50% Efficacy)"}, {"measurement": "DI", "setting": "[3]", "result": "2+ (2+: 50% Efficacy)"}, {"measurement": "ND", "setting": "Nerve disorders", "result": "2+ (2+: 50% Efficacy)"}]}, {"smiles": "CC[C@H](C)[C@H](NC(C)=O)C(=O)NCC(N)=O", "note": "[N-Ac-L-Ile-Gly-NH2] (Ac-Ile-Gly-NH2)", "values": [{"measurement": "AG", "setting": "[1]", "result": "3+ (3+: 75% Efficacy)"}, {"measurement": "DK", "setting": "Disturbed keratinization", "result": "3+ (3+: 75% Efficacy)"}, {"measurement": "DI", "setting": "[3]", "result": "4+ (4+: 95-100% Efficacy)"}, {"measurement": "ND", "setting": "Nerve disorders", "result": "4+ (4+: 95-100% Efficacy)"}]}, {"smiles": "CC(=O)NCC(=O)N1CCC[C@H]1C(N)=O", "note": "[N-Ac-Gly-L-Pro-NH2] (Ac-Gly-Pro-NH2)", "values": [{"measurement": "AG", "setting": "[1]", "result": "2+ (2+: 50% Efficacy)"}, {"measurement": "DK", "setting": "Disturbed keratinization", "result": "2+ (2+: 50% Efficacy)"}, {"measurement": "DI", "setting": "[3]", "result": "2+ (2+: 50% Efficacy)"}, {"measurement": "ND", "setting": "Nerve disorders", "result": "2+ (2+: 50% Efficacy)"}]}]}
